Data taken from paper PMC12147445, “Dual-Active Nanoimmunomodulators for the Synergistic Enhancement of the Antitumor Efficacy of Photodynamic Immunotherapy” (Biomaterials Research, 2025).

Assays:
CT26 cells [1] = assay: Flow cytometric apoptosis assay; assay type: cell-based, mouse; conditions: flow cytometry annexin V-FITC/PI, 6 h incubation; for apoptosis of CT26 cells, dark: no light
Experimental: After the CT26 cells were cultured on the wall, MAC, CPP, and CPPM were added and incubated for 6 h, and the light group was light-exposed for 5 min, respectively. After the cells were washed, 1× annexin V–FITC (195 μl), annexin V–FITC (5 μl), and PI staining solution (10 μl) were added, respectively, and the reaction was detected by flow cytometry after 10 to 15 min. The concentrations of PIX and MAC in CPPM were […] and 3.3 μg/l, respectively.

CT26 lung metastasis = assay: In vivo antitumor metastasis study (lung metastasis model); set-up: species or system BALB/c female mice; conditions: 10 d of treatment, n = 3
Experimental: The mouse lung metastasis model was established by inoculating CT26 cells on the back of BALB/c female mice and injecting 2 × 10^6 CT26 cells labeled using green fluorescent protein through the tail vein when the tumor volume of the loaded mice reached 100 mm^3 (Fig. S2C). The groups were treated in the same manner as those in the immune response study. The mice were executed after 10 d of treatment, and the lung tissues of the mice were excised and photographed, and the metastatic lung nodules were quantified and H&E-stained for further examination of the extent of lung metastasis.

[2] = Blood routine examination; assay type: in vivo, BALB/c female mice; conditions: CT26 tumor mice, i.v. every 2 d x5, day 18, no light, mean ± SD
Experimental: (§1) CT26 cells were inoculated on the back of BALB/c female mice to construct a subcutaneous tumor model (Fig. S2A). The groups were treated as follows (the same groupings as below): MAC (2.0 mg/kg), CPP (PIX content of 1.8 mg/kg), and CPPM (PIX and MAC contents of 1.8 and 2.0 mg/kg, respectively) were injected separately through the tail vein, and the light group was irradiated using a laser for 6 h after drug administration for 10 min (intensity of 50% and power of 0.68 W). The mice were treated every 2 d for a total of 5 treatments, and tumor volume and body weight were measured every other day. On day 18, the mice were executed by cervical dislocation, and their blood was removed and dissected. The spleens of the mice were weighed, and the mouse tumor tissues were stained for Ki67, terminal deoxynucleotidyl transferase dUTP nick end labeling (TUNEL), and CD3/CD8. Different concentrations of CPPM solutions were prepared with saline; 100 μl of CPPM solution was added into 2 ml of mouse blood and mixed well and incubated in a 37 °C water bath for 1 h. After centrifugation, 100 μl of the supernatant was taken into a 96-well plate, and the absorbance value was measured by an enzyme-labeling instrument at a wavelength of 540 nm and the hemolysis rate was calculated. In addition, blood biochemistry and blood routine indexes were analyzed, and hematoxylin–eosin (H&E) staining was performed on tumor tissues and major organs.

CT26 subcutaneous tumor = assay: Tumor growth inhibition, CT26 subcutaneous tumor model; assay type: in vivo, BALB/c female mice; conditions: for antitumor effect (tumor size, volume, weight), no light: MAC 2.0 mg/kg, PIX 1.8 mg/kg, tail vein every 2 d x5, n = 5
Experimental: as §1

CT26 cells [3] = assay: Cytotoxicity test by the MTT method; assay type: cell-based, mouse; conditions: for cytotoxicity (MTT), dark: CT26, no light, highest PIX 6 μg/ml and MAC 6.72 μg/ml, 6 h + 24 h
Experimental: CT26 cells were seeded into 96-well plates, and materials with different concentration gradients were prepared. Different materials were added into 96-well plates at 100 μl per well according to the concentration gradient, respectively. The highest concentration of PIX in CPP was 6 μg/ml. The highest concentrations of PIX and MAC in CPPM were 6 and 6.72 μg/ml, respectively. After 6 h of incubation, the CPP light group and CPPM light group were irradiated using infrared light for 3 min, and after 24 h, 20 μl of MTT reagent was added, and the absorbance was detected by an enzyme meter (570 nm) and the cell viability was calculated.

[4] = Drug content / loading efficiency (PIX by UV-Vis, MAC by HPLC); assay type: physicochemical; conditions: UV-Vis at 630 nm, sample diluted to 1 mg/ml
Experimental: CPP and CPPM were diluted to 1 mg/ml each. MAC was quantified by HPLC with a mobile phase A of water (0.2% TFA), a mobile phase B of acetonitrile, a flow rate of 1 ml/min, and a gradient elution of 10% to 100% B. The peak area of different concentrations of MAC was tested at 277 nm out, and the standard curve was plotted and the drug concentration was tested. PIX was quantified by ultraviolet–visible absorption spectrometry (UV–Vis), and the absorption values of different concentrations of PIX were determined at 630 nm, and the standard curve was plotted and the concentration of PIX was tested. Subsequently, the drug release profiles were determined by HPLC in release media at potential of hydrogen (pH) 5.3 and 7.4.

[5] = In vitro 1O2 assay (Singlet Oxygen Sensor Green); assay type: physicochemical; conditions: PBS, SOSG probe, 630-nm laser, measured every 15 s
Experimental: To further explore the ROS-producing behavior of CPPM, MAC, CPP, and CPPM were prepared into 1-ml solutions with phosphate-buffered saline, and 10 μl of reactive oxygen Singlet Oxygen Sensor Green probe was added to each set of solutions. The resulting fluorescence intensity was measured as F0 in an F-302 model fluorescence spectrophotometer (excitation wavelength of 488.0 nm, wavelength range of 500.0 to 550.0 nm), and the fluorescence intensity was measured as Ft under 630-nm laser irradiation every 15 s. The concentration of PIX in CPP was 3 μg/l. The concentrations of PIX and MAC in CPPM were 3 and 3.3 μg/l, respectively.

CT26 cells [6] = assay: Intracellular ROS detection (DCFH-DA probe); assay type: cell-based, mouse; conditions: CT26, 6 h incubation
Experimental: The CT26 cells were incubated for 6 h with the addition of MAC, CPP, and CPPM materials, respectively, after wall culture. Subsequently, a 2,7-dichlorodihydrofluorescein diacetate probe was added to stain the cells for 30 min, and the CPP light group and CPPM light group were illuminated for 3 min, and the cells were observed and analyzed by microscopy. The experimental groupings were (the same groupings as below): blank group (blank), MAC group (MAC), CPP group (CPP), CPP light exposure group (CPP+), CPPM group (CPPM), and CPPM light exposure group (CPPM+). The concentration of PIX in CPP was 6 μg/l. The concentrations of PIX and MAC in CPPM were 6 and 6.72 μg/l, respectively.

CT26 cells [7] = assay: ICD immunofluorescence assay (CRT, HMGB1); assay type: cell-based, mouse; conditions: CT26, PIX 6 μg/ml, MAC 6.72 μg/ml, 630 nm 29.8 mW cm^-2 10 min
Experimental: MAC, CPP, and CPPM were added to CT26 cells, and the light group was incubated for 6 h and then irradiated with light-emitting diode light (630 nm, 29.8 mW cm^−2) for 10 min. After continuing incubation for 4 h, paraformaldehyde (4%) and 0.1% Triton X-100 were added for fixation and permeabilization of cells, respectively. Subsequently, the cells were incubated with CRT or HMGB1 fluorescent primary antibody overnight ([…]), secondary antibody for 1 h, and DAPI for 20 min and then observed by microscopy. The PIX concentration was 6 μg/ml, and the MAC concentration was 6.72 μg/ml.

## CCCNS(=O)(=O)Nc1ncnc(OCCOc2ncc(Br)cn2)c1-c1ccc(Br)cc1 [MAC, Macitentan, reference compound]
CT26 cells [1]
  apoptosis of CT26 cells, dark: lower apoptosis rates
CT26 lung metastasis
  lung metastasis, no light: lung metastasis obviously occurred
[2]
  PCT: 0.21 ± 0.06%
  PDW: 17.89 ± 0.54
[2]; reference 0.00–0.30
  Mon: 5.54 ± 1.77 10^9/l
[2]; reference 0.10–1.80
  Gran: 116.23 ± 32.29 10^9/l
[2]; reference 0.70–5.70
  Lymph: 24.74 ± 5.26 10^9/l
[2]; reference 0.80–6.80
  WBC: 132.48 ± 37.09 10^9/l
[2]; reference 6.36–9.42
  RBC: 7.82 ± 0.54 10^12/l
[2]; reference 13.00–17.00
  RDW: 14.91 ± 0.48%
[2]; reference 15.80–19.00
  MCH: 16.61 ± 1.12 pg
[2]; reference 34.60–44.60
  HCT: 37.4 ± 2.73%
[2]; reference 48.20–58.30
  HCV: 52.75 ± 2.51 fL
[2]; reference 110.00–143.00
  HGB: 115.11 ± 15.08 g/L
[2]; reference 302.00–353.00
  MCHC: 318.78 ± 20.68 g/L
CT26 subcutaneous tumor
  antitumor effect (tumor size, volume, weight), no light: low antitumor properties
CT26 cells [3]
  cytotoxicity (MTT), dark: no significant toxic effects

## C (PEG5000-Mal)-VRARTR-PIX [CPP, PEG5000-Mal assembled with CP; CPP+ is the light exposure group]
CT26 cells [1]; light 5 min
  apoptosis of CT26 cells, light: significantly higher
CT26 cells [1]
  apoptosis of CT26 cells, dark: lower apoptosis rates
[4]
  loading efficiency of PIX: 12.09%
CT26 lung metastasis; laser
  lung metastasis, light: a few lung metastases were visible
CT26 lung metastasis
  lung metastasis, no light: lung metastasis obviously occurred
[5]
  1O2 generation: could produce ^1O2 under light conditions
CT26 subcutaneous tumor
  antitumor effect (tumor size, volume, weight), no light: low antitumor properties
CT26 subcutaneous tumor; PIX 1.8 mg/kg (MAC 2.0 mg/kg), tail vein every 2 d x5, laser 10 min 6 h after dosing, n = 5
  antitumor effect (tumor size, volume, weight), light: able to inhibit tumor growth
CT26 cells [6]; light 3 min
  intracellular ROS, light: showed green fluorescence
CT26 cells [6]; no light
  intracellular ROS, dark: did not produce ROS
CT26 cells [7]
  CRT expression on the cell membrane under PDT: increase the expression of CRT on the cell membrane
  HMGB1 in tumor cells under PDT: significantly attenuated
CT26 cells [3]; CT26, 6 h incubation then light 3 min, 24 h, highest PIX 6 μg/ml
  cytotoxicity (MTT), light: stronger cytotoxicity
CT26 cells [3]
  cytotoxicity (MTT), dark: no significant toxic effects
